Measured values as given in patent US20070104644A1, “Inhibitor imaging agents” (priority 2003, published 2007).
Numbered stars: 1 amine (or outer) side, 2 acyl side, 3 side chain; on linkers, the order of the positions; unused ones are H or OH. Square brackets hold non-standard residues; d marks the D form. Peptide text beside a SMILES is read from it. * marks the point of attachment. Tyr(3-I) = N[C@@H](Cc1ccc(O)c(I)c1)C(=O)O; X2 = O=C(NO)C1(N(CCC(=O)[*:2])[*:1])CCCC1; X1 = O=S(=O)(c1ccc(Oc2ccc(F)cc2)cc1)*

What was measured:
[1] = molecular target: MMP-8 (Homo sapiens, UniProt P22894); test: MMP-8 colorimetric assay kit (Biomol AK-414); format: biochemical
Description: (§1) Compounds were screened using the following commercially available Biomol assay kits: • MMP-1 colorimetric assay kit—Catalogue number AK-404, • MMP-2 colorimetric assay kit—Catalogue number AK-408, • MMP-8 calorimetric assay kit—Catalogue number AK-414, • MMP-9 calorimetric assay kit—Catalogue number AK-410, • MMP-12 colorimetric assay kit—Catalogue number AK-402, Which are available from Affiniti Research Products Ltd. (Palatine House, Matford Court, Exeter, EX2 8NL, UK).
(§2) Inhibitors were provided in powdered form, and stored at 4° C. For each inhibitor a 1 mM stock solution in DMSO was prepared, dispensed into 20 μl aliquots and these aliquots stored at −20° C. The stock solution was diluted to give 8 inhibitor concentrations (recommended: 50 μM, 5 μM, 500 nM, 50 nM, 5 nM, 500 pM, 50 pM and 5 pM). Dilutions were made in the kit assay buffer. A five-fold dilution of the inhibitor stocks is made on addition to the assay wells, therefore final concentration range was from 10 μM to 1 pM.
(§3) Details are provided with the commercial kit, but can be summarised as follows: • Prepare test compound dilutions as above, • Add assay buffer to plate, • Add test compounds to plate • Prepare standard kit inhibitor NNGH (see kit for dilution factor) • Add NNGH to control inhibitor wells • Prepare MMP enzyme (see kit for dilution factor) • Add MMP to plate • Incubate plate at 37° C. for ˜15 min • Prepare thiopeptolide substrate (see kit for dilution factor) • Add substrate to plate • Count every 2 min for 1 hr, 37° C., 414 nm on a Labsystems iEMS plate reader (for MMP-1 count every 30 seconds for 20 minutes).

[2] = molecular target: T1, MMP-1 (Homo sapiens, UniProt P03956); test: MMP-1 colorimetric assay kit (Biomol AK-404); format: biochemical
T1 sequence (P03956 100-469): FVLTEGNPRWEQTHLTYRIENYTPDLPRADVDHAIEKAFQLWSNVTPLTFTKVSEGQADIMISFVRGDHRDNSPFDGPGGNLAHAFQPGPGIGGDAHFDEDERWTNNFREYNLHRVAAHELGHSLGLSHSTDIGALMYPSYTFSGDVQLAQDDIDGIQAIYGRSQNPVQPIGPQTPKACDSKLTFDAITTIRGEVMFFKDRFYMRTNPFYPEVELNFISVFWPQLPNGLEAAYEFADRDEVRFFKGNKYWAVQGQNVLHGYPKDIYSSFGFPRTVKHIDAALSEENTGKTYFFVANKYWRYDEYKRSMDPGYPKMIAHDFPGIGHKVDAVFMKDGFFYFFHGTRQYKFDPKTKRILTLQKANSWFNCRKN
Description: as §1, §2, §3

[3] = molecular target: MMP-9 (Homo sapiens, UniProt P14780); test: MMP-9 colorimetric assay kit (Biomol AK-410); format: biochemical
Description: as §1, §2, §3

[4] = molecular target: T2, MMP-2 (Homo sapiens, UniProt P08253); test: MMP-2 colorimetric assay kit (Biomol AK-408); format: biochemical
T2 sequence (P08253 110-660): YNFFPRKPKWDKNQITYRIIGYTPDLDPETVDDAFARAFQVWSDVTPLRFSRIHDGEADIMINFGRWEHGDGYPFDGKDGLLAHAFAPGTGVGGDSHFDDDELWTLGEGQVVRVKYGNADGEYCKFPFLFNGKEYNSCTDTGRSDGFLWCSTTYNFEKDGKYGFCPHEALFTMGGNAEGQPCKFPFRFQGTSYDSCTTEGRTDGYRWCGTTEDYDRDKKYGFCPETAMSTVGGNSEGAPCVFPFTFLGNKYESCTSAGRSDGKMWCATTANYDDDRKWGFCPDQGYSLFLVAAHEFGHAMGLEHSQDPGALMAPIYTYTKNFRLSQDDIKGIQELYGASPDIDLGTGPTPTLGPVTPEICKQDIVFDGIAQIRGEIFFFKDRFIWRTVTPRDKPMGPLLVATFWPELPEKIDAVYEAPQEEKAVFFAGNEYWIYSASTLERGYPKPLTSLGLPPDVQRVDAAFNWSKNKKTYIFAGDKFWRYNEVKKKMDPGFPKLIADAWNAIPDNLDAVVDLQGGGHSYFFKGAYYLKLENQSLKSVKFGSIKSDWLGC
Description: as §1, §2, §3

[5] = tested on: ApoE −/− mice, carotid artery; test: Biodistribution in ApoE ligation model of atherosclerosis (ligated and sham); format: in vivo
Source text: ApoE −/− mice are transgenic knock-out mice, which lack the ApoE gene, and are therefore unable to regulate their plasma cholesterol levels. As a consequence ApoE mice develop atherosclerotic lesions, a process which is accelerated with feeding of high fat diet. Further acceleration of lesion development can be achieved by ligating the carotid artery, resulting in advanced lesion formation within 4 weeks of surgery and high fat diet feeding.
Two controls have been used for these experiments: (1) ApoE sham animals in which the mice undergo the same surgical intervention but the sture is only passed beneath the carotid and then removed and, (2) C57BL/6 ligtaed animals which undergo the same surgical ligation and high fat feeding as the ApoE ligated mice. Literature reports have stated that these animals do have some level of tissue remodelling, but with lower active MMP levels [Ivan et al, Circulation, 105, 2686-2691 (2002)].

[6] = tested on: Lewis lung carcinoma (LLC) tumour; test: Biodistribution in LLC tumour model in vivo; set-up: species or system C57BL/6 mice
Description: 1×10^6 Lewis lung carcinoma (LLC) cells are injected subcutaneously into right inner thigh of C57BL/6 mice. Tumours were allowed to grow for 15 days prior to biodistribution being carried out.
Biodistribution studies were performed in the LLC tumour model.
Biodistribution was performed in the LLC tumour model of Example 23 with Compounds 46B and 48B.

[7] = ApoE Ligated, 5 min post injection
[8] = ApoE Ligated, 60 min post injection
[9] = ApoE Sham, 60 min post injection

Chain of MMP-9 (P14780 94-707): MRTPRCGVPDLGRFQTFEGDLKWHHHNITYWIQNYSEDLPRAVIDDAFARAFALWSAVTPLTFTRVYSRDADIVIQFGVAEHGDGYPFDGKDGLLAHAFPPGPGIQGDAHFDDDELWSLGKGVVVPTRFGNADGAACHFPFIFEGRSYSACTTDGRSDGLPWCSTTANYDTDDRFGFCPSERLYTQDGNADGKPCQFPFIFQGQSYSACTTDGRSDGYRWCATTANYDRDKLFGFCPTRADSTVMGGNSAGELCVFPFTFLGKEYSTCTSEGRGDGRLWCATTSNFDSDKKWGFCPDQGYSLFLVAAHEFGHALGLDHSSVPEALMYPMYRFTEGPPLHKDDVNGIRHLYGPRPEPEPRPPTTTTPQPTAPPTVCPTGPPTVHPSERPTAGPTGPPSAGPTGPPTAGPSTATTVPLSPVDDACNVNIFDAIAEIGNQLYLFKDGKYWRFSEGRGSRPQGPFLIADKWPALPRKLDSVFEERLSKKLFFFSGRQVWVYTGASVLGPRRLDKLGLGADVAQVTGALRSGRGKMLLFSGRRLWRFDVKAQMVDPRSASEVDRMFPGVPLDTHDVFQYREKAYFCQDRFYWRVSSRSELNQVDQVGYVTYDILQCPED
Chain of MMP-8 (P22894 101-467): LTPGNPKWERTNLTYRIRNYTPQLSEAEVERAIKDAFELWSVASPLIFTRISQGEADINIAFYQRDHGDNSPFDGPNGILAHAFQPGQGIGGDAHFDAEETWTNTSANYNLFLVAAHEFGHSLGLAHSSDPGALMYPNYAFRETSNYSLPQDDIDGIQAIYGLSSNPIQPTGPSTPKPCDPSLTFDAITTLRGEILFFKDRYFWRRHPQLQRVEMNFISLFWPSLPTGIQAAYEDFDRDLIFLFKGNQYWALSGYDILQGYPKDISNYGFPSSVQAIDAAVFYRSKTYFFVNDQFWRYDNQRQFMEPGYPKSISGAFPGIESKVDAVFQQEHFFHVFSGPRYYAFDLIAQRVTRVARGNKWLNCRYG

Q: `NC(=O)[C@H](Cc1ccc(O)c(I)c1)NC(=O)[C@H](CCC(=O)O)NC(=O)[C@H](CCC(=O)O)NC(=O)[C@H](CCC(=O)O)NC(=O)[C@H](CCC(=O)O)NC(=O)[C@H](CCC(=O)O)NC(=O)CCN(C1(C(=O)NO)CCCC1)S(=O)(=O)c1ccc(Oc2ccc(F)cc2)cc1` [Compound 21] (X1-[X2]EEEEE[Tyr(3-I)]-NH2) was tested. Which Ki [1] did it give?
A: Its Ki is 0.87 nM.

Q: And the Ki [2]?
A: Its Ki is 195 nM.

Q: And the Ki [3]?
A: Its Ki is 0.82 nM.

Q: And the Ki [4]?
A: The Ki was 1.15 nM.

Q: Which results are given for `NC(=O)[C@H](Cc1ccc(O)c([123I])c1)NC(=O)CCOCCOCCOCCOCCOCCOCCOCCOCCOCCOCCOCCNC(=O)CCOCCOCCOCCOCCOCCOCCOCCOCCOCCOCCOCCNC(=O)CCN(C1(C(=O)NO)CCCC1)S(=O)(=O)c1ccc(Oc2ccc(F)cc2)cc1` [Compound 32A]?
A: % ID/G Carotid, mean [5, 7]: 10.32 % ID/G; Carotid/Blood, mean [5, 7]: 0.46; Carotid/Heart, mean [5, 7]: 1.39; Carotid/Lung, mean [5, 7]: 1.01; % ID/G Carotid, mean [5, 8]: 10.85 % ID/G; Carotid/Blood, mean [5, 8]: 1.21; Carotid/Heart, mean [5, 8]: 3.94; Carotid/Lung, mean [5, 8]: 1.45; % ID/G Carotid, mean [5, 9]: 2.91 % ID/G; Carotid/Blood, mean [5, 9]: 0.69; Carotid/Heart, mean [5, 9]: 1.28; Carotid/Lung, mean [5, 9]: 0.70; Blood clearance / retention [6]: high initial blood retention, which cleared with time; GI excretion [6]: low GI excretion; Tumour uptake and retention [6]: Good tumour uptake and retention were seen up to 1 hour post injection; Urinary excretion [6]: High urinary excretion; % ID Urinary (urinary excretion), mean ([6]; 5 min post injection): 9.82 % ID; % ID/g Tumour, mean ([6]; 5 min post injection): 2.58 % ID/g; Tumour/Blood, mean ([6]; 5 min post injection): 0.16; Tumour/Heart, mean ([6]; 5 min post injection): 0.48; Tumour/Lung, mean ([6]; 5 min post injection): 0.30; Tumour/Muscle, mean ([6]; 5 min post injection): 1.66; % ID Urinary (urinary excretion), mean ([6]; 30 min post injection): 35.20 % ID; % ID/g Tumour, mean ([6]; 30 min post injection): 2.67 % ID/g; Tumour/Blood, mean ([6]; 30 min post injection): 0.26; Tumour/Heart, mean ([6]; 30 min post injection): 0.75; Tumour/Lung, mean ([6]; 30 min post injection): 0.43; Tumour/Muscle, mean ([6]; 30 min post injection): 2.80; % ID Urinary (urinary excretion), mean ([6]; 60 min post injection): 54.06 % ID; % ID/g Tumour, mean ([6]; 60 min post injection): 2.03 % ID/g; Tumour/Blood, mean ([6]; 60 min post injection): 0.43; Tumour/Heart, mean ([6]; 60 min post injection): 1.31; Tumour/Lung, mean ([6]; 60 min post injection): 0.69; Tumour/Muscle, mean ([6]; 60 min post injection): 4.88; % ID Urinary (urinary excretion), mean ([6]; 120 min post injection): 64.10 % ID; % ID/g Tumour, mean ([6]; 120 min post injection): 1.34 % ID/g; Tumour/Blood, mean ([6]; 120 min post injection): 0.53; Tumour/Heart, mean ([6]; 120 min post injection): 1.54; Tumour/Lung, mean ([6]; 120 min post injection): 0.55; Tumour/Muscle, mean ([6]; 120 min post injection): 3.92

Q: Which results are given for `NCCCC[C@H](NC(=O)CCN(C1(C(=O)NO)CCCC1)S(=O)(=O)c1ccc(Oc2ccc(F)cc2)cc1)C(=O)N[C@@H](CCCCN)C(=O)N[C@@H](CCCCN)C(=O)N[C@@H](CCCCN)C(=O)N[C@@H](CCCCN)C(=O)NCCOCCOCCOCCNC(=O)COCC(=O)N[C@@H](Cc1ccc(O)c(I)c1)C(N)=O` [Compound 42]?
A: Ki [3]: 0.585 nM; Ki [4]: 2.19 nM
